{
  "source": "patent US10383885B2",
  "about": "“Method for treating or preventing dry eyes” (priority 2015, dated 2019)",
  "key": {"[1]": {"test_system": "Human Corneal Epithelial (HCE) cells", "assay": "Benzalkonium chloride cell damage model in HCE cells (trypan blue cell count)", "type": "cell-based", "conditions": "HCE cells damaged with 0.0005% benzalkonium chloride for 24 hours, then 0.4, 2, 10 μg/ml compound for 48 hours", "method": "Benzalkonium Chloride Cell Damage Model\nThe Human Corneal Epithelial (HCE) cells were seeded on a 6-well plate 5×10^5 cells with 10% FCS in DMEM/F12 for 24 hours. After cell attachment, medium was removed and changed into 0.0005% Benzalkonium chloride for 24 hours, then washed with PBS and treat with different concentrations 0.4, 2, 10 μg/ml of compound of Formula (I) (compound A) for 48 hours. At the end the cells were trypsinized and centrifuge 1000 rpm for 5 minutes, the supernatant was removed, added 1 ml of DMEM/F12 medium to resuspend the cells, followed by 0.4% trypan blue and the cell culture medium were 1:3 dilution, the number of cells were calculate under a microscope to observe the survivability of different concentrations treatment. The results are shown in FIG. 1. *P<0.05, **P<0.01 compared to the 0 μg/ml compound A group, Student's t-test. Data are expressed as mean±SD (n=3)."}, "BAC induced dry eye mice [2]": {"test_system": "BAC induced dry eye mice", "assay": "Benzalkonium chloride induced dry eye mice model (1), phenol red thread tear test", "type": "in vivo, Male BALB/c mice", "conditions": "0.3% BAC day 1 to 7; eye drops 2, 5 or 10 μg/ml three times a day, day 8 to 19; topical, right eye", "method": "Benzalkonium Chloride Induced Dry Eye Mice Model (1)\n(§1) Male BALB/c mice (6 weeks) was treated with thrice-daily (9:00, 13:30, 18:00) topical administration of 5 ul of 0.3% BAC in right eyes, mice was treated with PBS as control group, from day 1 to 7. And compound A (2, 5, 10 μg/ml) was treated with thrice-daily (9:00, 13:30, 18:00) topical administration of 5 ul in right eyes, and PBS as control group, from day 8 to 19.\n(§2) Phenol red thread tear test was used. The thread is yellow (acidic) and when it comes in contact with tears it changes to a light red color. Forceps were used to insert folded portion of the thread into the palpebral conjunctiva of the eye ⅓ of the distance from the lateral canthus of the lower eye lid. After 15 s, the thread was removed and the entire wet (Red) portion was measured. The phenol red thread test was on 7, 11, 15, 19 day. The results are shown in FIG. 2. *P<0.05, **P<0.01 compared to the control, Student's t-test. Data are expressed as mean±SD (n=5-6)."}, "BAC induced dry eye mice [3]": {"test_system": "BAC induced dry eye mice", "assay": "Benzalkonium chloride induced dry eye mice model (2), phenol red thread tear test", "type": "in vivo, Male BALB/c mice", "conditions": "0.3% BAC day 1 to 7; eye drops 5, 10 μg/ml thrice-daily, day 15 to 19; topical, right eye", "method": "Benzalkonium Chloride Induced Dry Eye Mice Model (2)\nas §1, with “mice (9” for “mice (6”, “A (5,” for “A (2, 5,”, “day 15” for “day 8”\nas §2, with “14, 18, 20” for “7, 11, 15, 19”, “3.” for “2.”"}, "NGF": {"test_system": "NGF", "assay": "Tear NGF protein expression in BAC induced dry eye mice (western blot)", "type": "in vivo", "conditions": "tear of BAC induced dry eye mice; eye drops 2, 5 or 10 μg/ml three times a day for 10 days", "method": "Tear was collected from right eye of BAC induced dry eye mice by 10 μl PBS wash. Mice treated eyes drop of PBS as control and different concentration Compound A for 10 days. NGF protein was a positive control. 5 μl tear volume used in western blot.\nThe total protein concentration was determined by 1×Braford assay. To denature, use a loading buffer(7 ml 0.5M Tris pH6.8, 3 ml Glycerol, 1 g 10% SDS, 0.93 g DTT, […] 0.05% bromophenol blue, 10 ml), and boil the mixture at 95-100° C. for 5 minutes. Total protein was loaded 20-40 μg per mini-gel (12% SDS-polyacrylamide gel) well for electrophoresis. Then transfer the proteins into polyvinylidene difluoride membrane and blocking the membrane with 5-10% nonfat dried milk in TTBS. The membrane was incubated with the primary antibody overnight at 4° C. by shaking. Wash the membrane several times in TTBS to remove residual primary antibody. And the membrane was incubated with secondary antibody for 2 hours at room temperature.\nThe protein levels were determined by chemiluminescene detection system and analysis by Imagequant software. The results are shown in FIG. 4. *P<0.05, **P<0.01, ***P<0.001 compared to the control, Student's t-test. Data are expressed as mean±SD (n=4)."}},
  "data": [
    {"smiles": "OC[C@H]1O[C@@H](Oc2c(O)cc(O)cc2/C=C/c2ccc(O)cc2)[C@H](O)[C@@H](O)[C@@H]1O", "note": "[compound of Formula (I), 2,3,5,4′-tetrahydroxystilbene 2-O-β-D-glucopyranoside]", "values": [
      {"measurement": "cell viability after BAC damage", "setting": "[1]", "result": "increased cell viability"},
      {"measurement": "tear secretion", "setting": "BAC induced dry eye mice [2]", "result": "restored tear secretion"},
      {"measurement": "tear secretion", "setting": "BAC induced dry eye mice [3]", "result": "improves tear secretion"},
      {"measurement": "NGF expression level", "setting": "NGF", "result": "increased the NGF gene expression level"}
    ]}
  ]
}
